The record followed here is patent US20240269170A1, “Treatment of Inflammatory Conditions or Diseases” (Queen Mary University of London, priority 2021, published 2024).

The subject of the experiment is G6PI peptide induced arthritis in DBA/1 mice. In words: G6PI peptide induced arthritis, transfer of monocytes from naive mice pre-incubated with MCTR3. To be noted: monocytes incubated with 10 μM RG108 for 15 min before 1 nM MCTR3. The class given is in vivo, mouse. How it is done:
FIG. 3: MCTR3 reprograms monocyte responses to reduce inflammation and repair inflamed joints. (A-B) Antigen induced arthritis was initiated by administering G6PI peptide (10 μg/mouse) in CFA via intradermal injection to DBA/1 mice. After 25 days mice were treated with 0.5×10^6 monocytes from naive mice that had been pre-incubated with vehicle (PBS+0.1% EtOH) or 1 nM MCTR3 for 90 min at 37° C. via i.v. injection. Disease course was monitored daily by assessing A) clinical scores and B) oedema. Results are mean±SEM and expressed as percent change from day of treatment n=5 per group from two separate experiments. Results are mean±SEM. Statistical differences were calculated using a Two-way ANOVA.
FIG. 11: DNA methyltransferase inhibition prevents MCTR3 reprogramming of protective monocyte responses. […] Disease course was assessed by evaluating A) clinical scores and B) oedema relative to the day of treatment. Results are mean±SEM and expressed as percentage change from day of treatment. n=5 per group and statistics were calculated using a Two-way ANOVA. […]

As to `O=C(O)C(Cc1c[nH]c2ccccc12)N1C(=O)c2ccccc2C1=O` (stereo not shown) [RG108], the “protective actions of MCTR3 (ability of reprogrammed monocytes to regulate joint inflammation)” value is given as “abolished”.
